Patent US10597388B2, “Pyridazinone herbicides” (FMC CORPORATION, priority 2014, dated 2020)

Experiments:
Test in all cases: Test C greenhouse herbicide test, pre- and postemergence
Assay type in all cases: in vivo
[1] = system: wheat (winter wheat, Triticum aestivum)
In short: (§1)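 Each species was treated both before emergence, in a loam–sand soil mix, and after emergence, as 1- to 4-leaf seedlings in peat-based potting medium. Plants stayed in the greenhouse 13 to 15 d, then were scored from 0 (no effect) to 100 (complete control) relative to controls.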

[2] = system: oilseed rape (Brassica napus)
In short: as §1

soybean (Glycine max) = system: soybean (Glycine max)
In short: as §1

[3] = system: blackgrass (Alopecurus myosuroides)
In short: as §1

[4] = system: barnyardgrass (Echinochloa crus-galli)
In short: as §1

[5] = system: ragweed (common ragweed, Ambrosia elatior)
In short: as §1

[6] = system: nutsedge, yellow (yellow nutsedge, Cyperus esculentus)
In short: as §1

[7] = system: crabgrass, large (large crabgrass, Digitaria sanguinalis)
In short: as §1

[8] = system: lambsquarters (Chenopodium album)
In short: as §1

[9] = system: ryegrass, Italian (Italian ryegrass, Lolium multiflorum)
In short: as §1

[10] = system: galium (catchweed bedstraw, Galium aparine)
In short: as §1

[11] = system: pigweed (Amaranthus retroflexus)
In short: as §1

corn (Zea mays) = system: corn (Zea mays)
In short: as §1

[12] = system: velvetleaf (Abutilon theophrasti)
In short: as §1

[13] = system: foxtail, giant (giant foxtail, Setaria faberii)
In short: as §1

[14] = Postemergence, 125 g ai/ha, scale 0 to 100, 0 is no effect, 100 is complete control
[15] = Postemergence, 250 g ai/ha, scale 0 to 100, 0 no effect, 100 complete control, 13 to 15 d
[16] = Preemergence, 31 g ai/ha, scale 0 to 100, 0 is no effect, 100 is complete control
[17] = Preemergence, 62 g ai/ha, scale 0 to 100, 0 is no effect, 100 is complete control
[18] = Preemergence, 125 g ai/ha, scale 0 to 100, 0 is no effect, 100 is complete control
[19] = Preemergence, 250 g ai/ha, scale 0 to 100, 0 no effect, 100 complete control
[20] = postemergence, 62 g ai/ha, scale 0 to 100, 0 no effect, 100 complete control
[21] = Postemergence, 31 g ai/ha, 0 to 100 scale (0 no effect, 100 complete control)

Structure (SMILES): CC(=O)Oc1c(C)nn(C)c(=O)c1-c1c(C)cc(C)c2ccccc12 [Compound 99]
- Plant response rating, Wheat [1, 14]: 10
- Plant response rating, Wheat [1, 15]: 10
- Plant response rating, Wheat [1, 16]: 0
- Plant response rating, Wheat [1, 17]: 0
- Plant response rating, Wheat [1, 18]: 30
- Wheat plant response rating [1, 19]: 65
- Wheat plant response rating [1, 20]: 0
- Plant response rating, Oilseed Rape [2, 14]: 60
- Plant response rating, Oilseed Rape [2, 15]: 55
- Plant response rating, Oilseed Rape [2, 16]: 0
- Plant response rating, Oilseed Rape [2, 17]: 40
- Plant response rating, Oilseed Rape [2, 18]: 90
- Oilseed Rape plant response rating [2, 19]: 98
- Oilseed Rape plant response rating [2, 20]: 5
- Plant response rating, Soybean (soybean (Glycine max); [14]): 5
- Plant response rating, Soybean (soybean (Glycine max); [15]): 5
- Plant response rating, Soybean (soybean (Glycine max); [16]): 0
- Plant response rating, Soybean (soybean (Glycine max); [17]): 0
- Plant response rating, Soybean (soybean (Glycine max); [18]): 5
- Soybean plant response rating (soybean (Glycine max); [19]): 20
- Soybean plant response rating (soybean (Glycine max); [20]): 5
- Blackgrass plant response rating [3, 21]: 20
- Plant response rating, Blackgrass [3, 14]: 50
- Plant response rating, Blackgrass [3, 15]: 65
- Plant response rating, Blackgrass [3, 16]: 50
- Plant response rating, Blackgrass [3, 17]: 70
- Plant response rating, Blackgrass [3, 18]: 90
- Blackgrass plant response rating [3, 19]: 90
- Blackgrass plant response rating [3, 20]: 30
- Barnyardgrass plant response rating [4, 21]: 25
- Plant response rating, Barnyardgrass [4, 14]: 35
- Plant response rating, Barnyardgrass [4, 15]: 35
- Plant response rating, Barnyardgrass [4, 16]: 5
- Plant response rating, Barnyardgrass [4, 17]: 15
- Plant response rating, Barnyardgrass [4, 18]: 55
- Barnyardgrass plant response rating [4, 19]: 85
- Barnyardgrass plant response rating [4, 20]: 25
- Plant response rating, Ragweed [5, 14]: 95
- Plant response rating, Ragweed [5, 15]: 100
- Plant response rating, Ragweed [5, 16]: 70
- Plant response rating, Ragweed [5, 17]: 90
- Plant response rating, Ragweed [5, 18]: 95
- Ragweed plant response rating [5, 19]: 95
- Ragweed plant response rating [5, 20]: 90
- Plant response rating, Nutsedge, Yellow [6, 14]: 75
- Plant response rating, Nutsedge, Yellow [6, 15]: 85
- Plant response rating, Nutsedge, Yellow [6, 16]: 20
- Plant response rating, Nutsedge, Yellow [6, 17]: 70
- Plant response rating, Nutsedge, Yellow [6, 18]: 60
- Nutsedge, Yellow plant response rating [6, 19]: 90
- Nutsedge, Yellow plant response rating [6, 20]: 55
- Plant response rating, Crabgrass, Large [7, 14]: 30
- Plant response rating, Crabgrass, Large [7, 15]: 50
- Plant response rating, Crabgrass, Large [7, 16]: 30
- Plant response rating, Crabgrass, Large [7, 17]: 35
- Plant response rating, Crabgrass, Large [7, 18]: 60
- Crabgrass, Large plant response rating [7, 19]: 80
- Crabgrass, Large plant response rating [7, 20]: 20
- Plant response rating, Lambsquarters [8, 14]: 85
- Plant response rating, Lambsquarters [8, 15]: 98
- Plant response rating, Lambsquarters [8, 16]: 25
- Plant response rating, Lambsquarters [8, 17]: 80
- Plant response rating, Lambsquarters [8, 18]: 100
- Lambsquarters plant response rating [8, 19]: 95
- Lambsquarters plant response rating [8, 20]: 75
- Plant response rating, Ryegrass, Italian [9, 14]: 95
- Plant response rating, Ryegrass, Italian [9, 15]: 95
- Plant response rating, Ryegrass, Italian [9, 16]: 90
- Plant response rating, Ryegrass, Italian [9, 17]: 90
- Plant response rating, Ryegrass, Italian [9, 18]: 100
- Ryegrass, Italian plant response rating [9, 19]: 100
- Ryegrass, Italian plant response rating [9, 20]: 90
- Plant response rating, Galium [10, 14]: 98
- Plant response rating, Galium [10, 15]: 98
- Plant response rating, Galium [10, 18]: 98
- Galium plant response rating [10, 19]: 98
- Galium plant response rating [10, 20]: 95
- Plant response rating, Pigweed [11, 14]: 98
- Plant response rating, Pigweed [11, 15]: 95
- Plant response rating, Pigweed [11, 16]: 95
- Plant response rating, Pigweed [11, 17]: 100
- Plant response rating, Pigweed [11, 18]: 100
- Pigweed plant response rating [11, 19]: 100
- Pigweed plant response rating [11, 20]: 75
- Corn plant response rating (corn (Zea mays); [21]): 0
- Plant response rating, Corn (corn (Zea mays); [14]): 10
- Plant response rating, Corn (corn (Zea mays); [15]): 10
- Plant response rating, Corn (corn (Zea mays); [16]): 5
- Plant response rating, Corn (corn (Zea mays); [17]): 20
- Plant response rating, Corn (corn (Zea mays); [18]): 10
- Corn plant response rating (corn (Zea mays); [19]): 30
- Corn plant response rating (corn (Zea mays); [20]): 5
- Plant response rating, Velvetleaf [12, 14]: 98
- Plant response rating, Velvetleaf [12, 15]: 100
- Plant response rating, Velvetleaf [12, 16]: 60
- Plant response rating, Velvetleaf [12, 17]: 75
- Plant response rating, Velvetleaf [12, 18]: 90
- Velvetleaf plant response rating [12, 19]: 95
- Velvetleaf plant response rating [12, 20]: 85
- Plant response rating, Foxtail, Giant [13, 14]: 30
- Plant response rating, Foxtail, Giant [13, 15]: 50
- Plant response rating, Foxtail, Giant [13, 16]: 40
- Plant response rating, Foxtail, Giant [13, 17]: 35
- Plant response rating, Foxtail, Giant [13, 18]: 65
- Foxtail, Giant plant response rating [13, 19]: 90
- Foxtail, Giant plant response rating [13, 20]: 15
